Laboratory results taken from the supplement of paper PMC4862054.
Values joined by “and” are separate entries in the source; they are usually repeats but may differ in a detail not shown here. Equal values may be shown once.

Key:
Details in all cases: incubation time: 72 h
[1] = system: MDA-MB-453; test: drug sensitivity score (DSS), CellTiter-Glo (DSS (AUC-based score)); higher = stronger drug effect (viability inhibition or cytotoxicity); extreme values may be limits of the assay
How it was run: (§1)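 Plates with 384 wells held compound at 5 concentrations in 10-fold steps over a 10,000-fold range specific to each compound. Breast cancer cell lines were added in 20 µl suspension and incubated 72 h, then read for CellTox Green and CellTiter-Glo signals, with each plate normalised to 0.1 % DMSO and a positive kill control. The drug sensitivity score is based on the area under the fitted dose-response curve.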

[2] = system: SK-BR-3; test: as above
How it was run: as §1

[3] = system: HCC1937; test: as above
How it was run: as §1

[4] = system: HCC1143; test: as above
How it was run: as §1

[5] = system: MFM-223; test: as above
How it was run: as §1

[6] = system: CAL-85-1; test: as above
How it was run: as §1

[7] = system: CAL-148; test: as above
How it was run: as §1

[8] = system: BT-549; test: as above
How it was run: as §1

[9] = system: BT-474; test: as above
How it was run: as §1

[10] = system: MDA-MB-436; test: as above
How it was run: as §1

[11] = system: DU-4475; test: as above
How it was run: as §1

[12] = system: MDA-MB-231; test: as above
How it was run: as §1

[13] = system: CAL-120; test: as above
How it was run: as §1

[14] = system: MCF-10A; test: as above
How it was run: as §1

[15] = system: CAL-51; test: as above
How it was run: as §1

[16] = system: HCC1599; test: as above
How it was run: as §1

[17] = system: SK-BR-3; test: normalised viability (% of control), CellTiter-Blue; higher = more viable cells (about 100 = DMSO control)
How it was run: (§2)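 Seeded at 20 µl suspension per well onto compound-loaded 384-well plates, breast cancer cell lines were incubated 72 h. CellTiter-Blue fluorescence at 560/590 nm was then read, with each plate normalised to vehicle (100) and a positive kill control (0). Normalised viability is reported at a single listed concentration of the series.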

[18] = system: HCC1937; test: as above
How it was run: as §2

[19] = system: HCC1143; test: as above
How it was run: as §2

[20] = system: MFM-223; test: as above
How it was run: as §2

[21] = system: CAL-85-1; test: as above
How it was run: as §2

[22] = system: Hs578T; test: as above
How it was run: as §2

[23] = system: BT-549; test: as above
How it was run: as §2

[24] = system: MDA-MB-436; test: as above
How it was run: as §2

[25] = system: DU-4475; test: as above
How it was run: as §2

[26] = system: MDA-MB-231; test: as above
How it was run: as §2

[27] = system: CAL-120; test: as above
How it was run: as §2

[28] = system: CAL-51; test: as above
How it was run: as §2

O=C(O)CCCc1ccc(N(CCCl)CCCl)cc1 [Chlorambucil] was tested, and the drug sensitivity score [1] was 0, the drug sensitivity score [2] was 0 and the drug sensitivity score [3] was 0. It also gave a drug sensitivity score [4] of 0, a drug sensitivity score [5] of 0 and a drug sensitivity score [6] of 0. For the same compound, the drug sensitivity score [7] was 0, the drug sensitivity score [8] was 0 and the drug sensitivity score [9] was 0. For the same compound, the drug sensitivity score [10] was 0, the drug sensitivity score [11] was 0 and the drug sensitivity score [12] was 0. For the same compound, the drug sensitivity score [13] was 0, the drug sensitivity score [14] was 0 and the drug sensitivity score [15] was 0. For the same compound, the drug sensitivity score [16] was 0, the normalised viability ([17]; 1000 nM) was 105% and the normalised viability ([18]; 1000 nM) was 68.7%. For the same compound, the normalised viability ([19]; 1000 nM) was 93.9%, the normalised viability ([20]; 1000 nM) was 106% and the normalised viability ([21]; 30 nM) was 92.7%. The normalised viability ([22]; 1000 nM) was 102%, the normalised viability ([23]; 1000 nM) was 102% and the normalised viability ([24]; 1000 nM) was 91.8%. The normalised viability ([25]; 30 nM) was 92%, the normalised viability ([26]; 1000 nM) was 109% and the normalised viability ([27]; 1000 nM) was 98.5%. The normalised viability ([28]; 30 nM) was 112%.

In the case of Cn1c(=O)n(-c2ccc(C(C)(C)C#N)cc2)c2c3cc(-c4cnc5ccccc5c4)ccc3ncc21 [Dactolisib], the drug sensitivity score [1] is reported as 14.7, the drug sensitivity score [2] is reported as 16.2 and the drug sensitivity score [3] is reported as 9.76. For the same compound, the drug sensitivity score [4] was 12.7, the drug sensitivity score [5] was 13.4 and the drug sensitivity score [6] was 15.3. It also gave a drug sensitivity score [7] of 14.6, a drug sensitivity score [8] of 18.6 and a drug sensitivity score [9] of 9.24. It also gave a drug sensitivity score [10] of 11.8, a drug sensitivity score [11] of 11.4 and a drug sensitivity score [12] of 11.7. It also gave a drug sensitivity score [13] of 17.9, a drug sensitivity score [14] of 9.78 and a drug sensitivity score [15] of 16.8. The drug sensitivity score [16] was 2.8.

For CO[C@H]1C[C@@H]2CC[C@@H](C)[C@@](O)(O2)C(=O)C(=O)N2CCCC[C@H]2C(=O)O[C@H]([C@H](C)C[C@@H]2CC[C@@H](OCCO)[C@H](OC)C2)CC(=O)[C@H](C)/C=C(\C)[C@@H](O)[C@@H](OC)C(=O)[C@H](C)C[C@H](C)/C=C/C=C/C=C/1C [Everolimus], the drug sensitivity score [1] was 10, the drug sensitivity score [2] was 12.7 and the drug sensitivity score [3] was 8.95. It also gave a drug sensitivity score [4] of 8.31, a drug sensitivity score [5] of 10.8 and a drug sensitivity score [6] of 10.6. It also gave a drug sensitivity score [7] of 13.4, a drug sensitivity score [8] of 13 and a drug sensitivity score [9] of 3.02. For the same compound, the drug sensitivity score [10] was 5.1, the drug sensitivity score [11] was 6.44 and the drug sensitivity score [12] was 0. For the same compound, the drug sensitivity score [13] was 8.8, the drug sensitivity score [14] was 0 and the drug sensitivity score [15] was 9.8. For the same compound, the drug sensitivity score [16] was 0, the normalised viability ([17]; 100 nM) was 59.7% and 44.4% and the normalised viability ([18]; 100 nM) was 48.8% and 48.4%. For the same compound, the normalised viability ([20]; 100 nM) was 50% and 45.1%, the normalised viability ([21]; 3 nM) was 63.9% and 54% and the normalised viability ([22]; 100 nM) was 62.4% and 51%. For the same compound, the normalised viability ([23]; 100 nM) was 62.1% and 54.9%, the normalised viability ([26]; 100 nM) was 48.1% and 68.9% and the normalised viability ([27]; 100 nM) was 54.1% and 36.7%. The normalised viability ([28]; 3 nM) was 49.6% and 52.9%.

In the case of CCCCCCCCc1ccc(CCC(N)(CO)CO)cc1 [Fingolimod], the drug sensitivity score [1] is reported as 5.2, the drug sensitivity score [2] is reported as 5.36 and the drug sensitivity score [3] is reported as 4.54. For the same compound, the drug sensitivity score [4] was 0, the drug sensitivity score [5] was 1.45 and the drug sensitivity score [6] was 5.32. The drug sensitivity score [7] was 1.1, the drug sensitivity score [8] was 3.92 and the drug sensitivity score [9] was 6.1. It also gave a drug sensitivity score [10] of 3.56, a drug sensitivity score [11] of 0 and a drug sensitivity score [12] of 6.21. It also gave a drug sensitivity score [13] of 0, a drug sensitivity score [14] of 5.32 and a drug sensitivity score [15] of 4.51. For the same compound, the drug sensitivity score [16] was 0.954, the normalised viability ([17]; 1000 nM) was 108% and the normalised viability ([18]; 1000 nM) was 95.4%. For the same compound, the normalised viability ([19]; 1000 nM) was 106%, the normalised viability ([20]; 1000 nM) was 106% and the normalised viability ([21]; 30 nM) was 87.1%. It also gave a normalised viability ([22]; 1000 nM) of 100%, a normalised viability ([23]; 1000 nM) of 88.7% and a normalised viability ([24]; 1000 nM) of 81.4%. The normalised viability ([25]; 30 nM) was 119%, the normalised viability ([26]; 1000 nM) was 86.8% and the normalised viability ([27]; 1000 nM) was 88.5%. The normalised viability ([28]; 30 nM) was 111%.

In the case of Cc1cc2c(C(C)C)c(O)c(O)c(C=O)c2c(O)c1-c1c(C)cc2c(C(C)C)c(O)c(O)c(C=O)c2c1O [Gossypol], the normalised viability ([17]; 10000 nM) is reported as 28.6%, the normalised viability ([18]; 10000 nM) is reported as 23.3% and the normalised viability ([19]; 10000 nM) is reported as 49%. For the same compound, the normalised viability ([20]; 10000 nM) was 23.3%, the normalised viability ([21]; 300 nM) was 87.3% and the normalised viability ([22]; 10000 nM) was 6%. For the same compound, the normalised viability ([23]; 10000 nM) was 19.5%, the normalised viability ([24]; 10000 nM) was 14.9% and the normalised viability ([25]; 300 nM) was 93.9%. It also gave a normalised viability ([26]; 10000 nM) of 22.8%, a normalised viability ([27]; 10000 nM) of 37.5% and a normalised viability ([28]; 300 nM) of 94.2%.

For Nc1nc(OCc2cc(Br)cs2)c2[nH]cnc2n1 [Lomeguatrib], the drug sensitivity score [1] was 0, the drug sensitivity score [2] was 0 and the drug sensitivity score [3] was 0. The drug sensitivity score [4] was 0, the drug sensitivity score [5] was 0 and the drug sensitivity score [6] was 0. It also gave a drug sensitivity score [7] of 0, a drug sensitivity score [8] of 0 and a drug sensitivity score [9] of 0. It also gave a drug sensitivity score [10] of 0, a drug sensitivity score [11] of 0 and a drug sensitivity score [12] of 0. The drug sensitivity score [13] was 0, the drug sensitivity score [14] was 0 and the drug sensitivity score [15] was 0. It also gave a drug sensitivity score [16] of 0.

In the case of Cn1c(=O)n(-c2ccc(C(C)(C)C#N)cc2)c2c3cc(-c4cnc5ccccc5c4)ccc3ncc21 [NVP-BEZ235], the normalised viability ([17]; 100 nM) is reported as 21.9%, the normalised viability ([18]; 100 nM) is reported as 47.4% and the normalised viability ([19]; 100 nM) is reported as 37.9%. For the same compound, the normalised viability ([20]; 100 nM) was 24.5%, the normalised viability ([21]; 3 nM) was 84.5% and the normalised viability ([22]; 100 nM) was 32.5%. The normalised viability ([23]; 100 nM) was 21.7%, the normalised viability ([24]; 100 nM) was 68.2% and the normalised viability ([25]; 3 nM) was 107%. The normalised viability ([26]; 100 nM) was 26.8%, the normalised viability ([27]; 100 nM) was 17.6% and the normalised viability ([28]; 3 nM) was 84.7%.

Work on COc1ccccc1S(=O)(=O)Nc1ccc2c(c1)CN(C)C(=O)N2 [PFI-1] yielded a drug sensitivity score [1] of 4.63, a drug sensitivity score [2] of 0 and a drug sensitivity score [3] of 0. It also gave a drug sensitivity score [4] of 0, a drug sensitivity score [5] of 1.13 and a drug sensitivity score [6] of 3.01. The drug sensitivity score [7] was 0, the drug sensitivity score [8] was 5.52 and the drug sensitivity score [9] was 0. For the same compound, the drug sensitivity score [10] was 1.33, the drug sensitivity score [11] was 0.973 and the drug sensitivity score [12] was 1.83. For the same compound, the drug sensitivity score [13] was 2.01, the drug sensitivity score [14] was 1.98 and the drug sensitivity score [15] was 3.76. The drug sensitivity score [16] was 0.

Compound NS(=O)(=O)OC[C@@H]1C[C@@H](n2ccc3c(N[C@H]4CCc5ccccc54)ncnc32)C[C@@H]1O [Pevonedistat] has a drug sensitivity score [1] of 3.83, a drug sensitivity score [2] of 21.7 and a drug sensitivity score [3] of 2.78. For the same compound, the drug sensitivity score [4] was 8.48, the drug sensitivity score [5] was 9.97 and the drug sensitivity score [6] was 11.9. The drug sensitivity score [7] was 0, the drug sensitivity score [8] was 15.3 and the drug sensitivity score [9] was 7.25. For the same compound, the drug sensitivity score [10] was 14.2, the drug sensitivity score [11] was 22.5 and the drug sensitivity score [12] was 6.52. For the same compound, the drug sensitivity score [13] was 7.98, the drug sensitivity score [14] was 0 and the drug sensitivity score [15] was 22.8. The drug sensitivity score [16] was 14.
